Measured values from US20210386829A1, “COMPOSITIONS AND METHODS FOR MODULATING CGRP SIGNALING TO REGULATE INNATE LYMPHOID CELL INFLAMMATORY RESPONSES” (The Broad Institute, Inc., priority 2018, published 2021).
“Also recorded” adds a separate entry of the source.

Tested on: lung ILCs
Experiment: culture of sort-purified lung ILCs with IL-7, IL-33 or IL-25+NMU with or without CGRP (qPCR, LegendPlex, intracellular cytokine staining)
Assay type: cell-based, mouse
Experimental: ILC in vitro culture. For in vitro experiments 5,000 ILCs/well were cultured in a 96 well round bottom plate with 20 ng/ml IL-7 (R&D Systems), 200 ng/ml IL-25 (R&D Systems) or 20 ng/ml, 2 ng/ml or 0.2 ng/ml IL-33 (BioLegend) with or without 1 μg/ml Neuromedin U (US Biological). In some cases purified CD90.2^+ lung cells were first labeled with CellTrace Violet (Thermo Fisher Scientific), then sorted as described above, and cultured for 3 days under the indicated conditions.
Quantitative real-time PCR. RNA was isolated using RNeasy Plus Mini Kit (Qiagen) and reverse transcribed to cDNA with iScript cDNA Synthesis Kit (Bio-Rad). Gene expression was analyzed by quantitative real-time PCR on a ViiA7 System (Thermo Fisher Scientific) using TaqMan Fast Advanced Master Mix (Thermo Fisher Scientific) with the following primer/probe sets: Il5 (Mm00439646_m1), Il13 (Mm00434204_m1), Il17rb (Mm00444709_m1), Nmur1 (Mm04207994_m1), Nmur2 (Mm00600704_m1), Nmu (Mm00479868_m1) and Actb (Applied Biosystems). Expression values were calculated relative to Actb detected in the same sample by duplex qPCR.
Cytokine quantification. Cytokine concentrations in BAL fluid, lung and supernatant of in vitro ILC cultures were analyzed by the LegendPlex Mouse Th Cytokine Panel (13-plex) (BioLegend) according to the manufacturer's instructions and analyzed on a FACS Calibur (BD Biosciences).
Culture of innate lymphoid cells. Sort-purified innate lymphoid cells (ILCs) were cultured under sterile conditions in complete medium in a humidified incubator at 37° C. and 10% CO2. ILCs were plated at a density of 3,000-5,000 ILCs per well in a 96 well round-bottom plate in cell culture medium with 20 ng/ml IL-7. Depending on the experiment, different combinations of 200 ng/ml IL-25, 200 ng/ml IL-33, 1 ug/ml NMU and 100 nM CGRP were added either at start or after overnight culture with 20 ng/ml IL-7. […]
For flow cytometric analysis, lung cells were transferred into a 96 well V-bottom plate and stained with surface antibodies for 20 min at 4° C. in the dark. Cells were washed twice with DPBS containing 2% fetal bovine serum and transferred into 1.2 ml tubes for analysis by flow cytometry. For intracellular cytokine staining, cells were incubated in complete cell culture medium with 50 ng/ml phorbol 12-myristate 13-acetate (Sigma-Aldrich), 1 uM ionomycin (Sigma-Aldrich) and GolgiStop (Cat #554724; BD Biosciences) in a humidified incubator at 37° C. and 10% CO2. After 5 hours, cells were transferred into 96 well V-bottom plate, stained with Fixable Viability Dye eFluor 506 (Cat #65-0866-14; Thermo Fisher) and surface antibodies for 20 min at 4° C. in the dark and washed twice with DPBS containing 2% fetal bovine serum. Then, cells were incubated with BD Cytofix/Cytoperm Buffer (Cat #51-2090KZ; BD Biosciences) for 20 min, followed by a wash with BD Perm/Wash Buffer (Cat #51-2091KZ; BD Biosciences). Subsequently, cells were incubated with antibodies targeting intracellular proteins diluted in BD Perm/Wash Buffer for 20 min and after two wash steps, transferred into 1.2 ml tubes for analysis by flow cytometry. For ki67 staining, cells were stained for surface antibodies as described above, fixed with a solution of Fixation/Permeabilization Concentrate (Cat #00-5123-43; Invitrogen) and Fixation/Perm Diluent (Cat #00-5223-56; Invitrogen) for 20 min, washed with Permeabilization Buffer (Cat #00-8333-56; Invitrogen). Then, cells were incubated with ki67 antibody diluted in Permeabilization Buffer for 20 min, washed and transferred into FACS tubes. Cells were analyzed on a BD LSRFortessa (BD Biosciences) flow cytometer with 5 lasers (355 nm, 405 nm, 488 nm, 561 nm and 640 nm). Data was analyzed using FlowJo v10.5.0 software and cell populations were gated as described previously (Wallrapp 2017).
RNA isolation and cDNA synthesis. […]

[1] = IL-7+CGRP vs IL-7 alone, 6 hours
[2] = IL-33+CGRP vs IL-33 alone, 6 hours
[3] = IL-33+CGRP vs IL-33 alone, 3 days
[4] = IL-33+CGRP vs IL-33 alone, 3 days culture

CGRP: neuropeptide calcitonin gene-related peptide (encoded by Calca), ligand of the Ramp1/Calcrl receptor; given at 100 nM in vitro, 6.65 ug nasally
Il5 expression in ILC2s (qPCR) [1]: upregulated
Il13 expression in ILC2s (qPCR) [1]: downregulated
amphiregulin (Areg) expression in ILC2s (qPCR) [1]: trend of increased expression
type 2 cytokine (IL-5, IL-13) production at mRNA and protein level in ILCs (IL-25+NMU+CGRP vs IL-25+NMU, 3 days): significantly reduced
Areg expression in ILC2s (qPCR) [2]: significantly increased
Il5 expression in ILC2s (qPCR) [2]: significantly increased
Il13 expression in ILC2s (qPCR) [2]: significantly decreased
IL-13 produced per cell (MFI) [3]: less
amount of IL-5 expressed per cell (MFI) [3]: significant decreases
frequency of IL-5-producing ILCs (flow cytometry) [3]: significant decreases
frequency of IL-13+ ILCs (flow cytometry) [3]: lower
Areg expression in ILCs (qPCR) [4]: increased
IL-5 production at RNA and protein level in ILCs [4]: reduces; also recorded: significantly reduced
IL-13 production at RNA and protein level in ILCs [4]: reduces; also recorded: significantly reduced; also recorded: remains repressed
IL-5 protein production (intracellular cytokine staining) (short-term (8 hours) CGRP+IL33 vs IL-33 alone): induced
frequency of IL-13-positive ILC2s (intracellular cytokine staining) (short-term (8 hours) treatment with CGRP+IL33): 2%
